How the values were obtained:
[1] = biological target: T1, human ganglionic nAChR subtype (Homo sapiens, UniProt P30926+P32297); test: 86Rb+ efflux in SH-SY5Y cells (human ganglionic nAChR subtype); type: cell-based
T1 construct: endogenous in cells; host or cells: SH-SY5Y human neuroblastoma cells
Description: Example 8: Interaction at the Human Ganglionic nAChR Subtype
The cell line SH-SY5Y is a continuous line derived by sequential subcloning of the parental cell line, SK-N-SH, which was originally obtained from a human peripheral neuroblastoma. SH-SY5Y cells express a ganglion-like nAChR (Lukas et al., Mol. Cell. Neurosci. 4: 1 (1993)).
Human SH-SY5Y cells were maintained in proliferative growth phase according to routine protocols (Bencherif et al., Mol. Cell. Neurosci. 2: 52 (1991) and Bencherif et al., J. Pharmacol. Exp. Ther. 257: 946 (1991)). Cells were cultured in Dulbecco's modified Eagle's medium (Gibco/BRL) with 10% horse serum (Gibco/BRL), 5% fetal bovine serum (HyClone, Logan Utah), 1 mM sodium pyruvate, 4 mM L-Glutamine, and 50,000 units penicillin-streptomycin (Irvine Scientific). When cells were 80% confluent, they were plated to 12 well polystyrene plates (Costar). […]
Nicotinic acetylcholine receptor (nAChR) function was assayed using ^86Rb^+efflux according to a method described by Lukas et al., Anal. Biochem. 175: 212 (1988). […] Scintillation fluid was added and released radioactivity was measured by liquid scintillation counting. […]
When appropriate, dose-response curves of test compound were determined. The maximal activation for individual compounds (Emax) was determined as a percentage of the maximal activation induced by L-nicotine. […]

[2] = test system: mice impaired with scopolamine; test: Morris Water Maze (MWM) task, scopolamine-impaired; type: in vivo; conditions: 1 mg/kg (5 μmol/kg) p.o., scopolamine 0.75 mg/kg s.c.
Description: In an animal model of spatial memory, the efficacy of Compound A (7,8,9,10-tetrahydro-6H-azepino[4,5-g]quinoxaline) to attenuate water-maze performances of mice impaired with scopolamine (0.75 mg/kg, s.c.) was evaluated. Following a two-day acclimation period to the maze, mice were trained for 4 days to a platform location in the maze. During the training sessions, each animal was given four trials separated by 5 minutes between each trial. The platform location was constant for each animal. Compound A (1, 3 and 10 mg/kg or 5, 15.1 and 50 μmol/kg, p.o.) was administered 25 minutes prior to each of the four training days. Scopolamine was administered 15 minutes prior to each of the four training days. The probe trial (i.e., no platform present) was conducted on day 5 under drug-free (i.e., water instead of Compound A and saline instead of scopolamine) conditions. In the MWM model, Compound A (1, 3 and 10 mg/kg) was orally administered 25 minutes whereas scopolamine was subcutaneously administered 15 minutes prior to each of the four training days. During training days, each animal was given four trials separated by 5 minutes between trials. The probe trial was conducted on day 5 under drug-free (i.e., water instead of Compound A and saline instead of scopolamine) conditions.

[3] = biological target: T2, Rat α4β2 nAChR subtype (Rattus norvegicus, UniProt P09483+P12390); test: [3H]nicotine radioligand binding, membranes from rat cortex
T2 construct: from tissue; host or cells: rat cerebral cortex membranes (female Sprague-Dawley)
Description: Preparation of membranes from rat cortex: Rats (female, Sprague-Dawley), weighing 150-250 g, were maintained on a 12 h light/dark cycle and were allowed free access to water and food supplied by PMI Nutrition International, Inc. Animals were anesthetized with 70% CO2, and then decapitated. Brains were removed and placed on an ice-cold platform. The cerebral cortex was removed and placed in 20 volumes (weight:volume) of ice-cold preparative buffer (137 mM NaCl, 10.7 mM KCl, 5.8 mM KH2PO4, 8 mM Na2HPO4, 20 mM HEPES (free acid), 5 mM iodoacetamide, 1.6 mM EDTA, pH 7.4); PMSF, dissolved in methanol to a final concentration of 100 μM, was added and the suspension was homogenized by Polytron. The homogenate was centrifuged at 18,000×g for 20 min at 4° C. and the resulting pellet was re-suspended in 20 volumes of ice-cold water. After 60 min incubation on ice, a new pellet was collected by centrifugation at 18,000×g for 20 min at 4° C. The final pellet was re-suspended in 10 volumes of buffer and stored at ˜20° C.
On the day of the assay, the frozen membranes were thawed and spun at 48,000×g for 20 min. The supernatant was decanted and discarded. The pellet was resuspended in Dulbecco's phosphate buffered saline (PBS, Life Technologies) pH 7.4 and homogenized with the Polytron for 6 seconds. Protein concentrations were determined using a Pierce BCA Protein Assay Kit, with bovine serum albumin as the standard (Pierce Chemical Company, Rockford, Ill.).
Assay: Membrane preparations (approximately 50 μg for human and 200-300 μg protein for rat α4β2) were incubated in PBS (50 μL and 100 μL respectively) in the presence of competitor compound (0.01 nM to 100 μM) and 5 nM [^3H]nicotine for 2-3 hours on ice. Incubation was terminated by rapid filtration on a multi-manifold tissue harvester (Brandel, Gaithersburg, Md.) using GF/B filters presoaked in 0.33% polyethyleneimine (w/v) to reduce non-specific binding. Tissue was rinsed 3 times in PBS, pH 7.4. Scintillation fluid was added to filters containing the washed tissue and allowed to equilibrate. Filters were then counted to determine radioactivity bound to the membranes by liquid scintillation counting (2200CA Tri-Carb LSC, Packard Instruments, 50% efficiency or Wallac Trilux 1450 MicroBeta, 40% efficiency, Perkin Elmer).
Data were expressed as disintegrations per minute (DPMs). Within each assay, each point had 2-3 replicates. The replicates for each point were averaged and plotted against the log of the drug concentration. IC50, which is the concentration of the compound that produces 50% inhibition of binding, was determined by least squares non-linear regression. Ki values were calculated using the Cheng-Prussof equation (1973): […]
where N is the concentration of [^3H]nicotine and Kd is the affinity of nicotine (3 nM, determined in a separate experiment).

T1 sequence (P32297 32-505): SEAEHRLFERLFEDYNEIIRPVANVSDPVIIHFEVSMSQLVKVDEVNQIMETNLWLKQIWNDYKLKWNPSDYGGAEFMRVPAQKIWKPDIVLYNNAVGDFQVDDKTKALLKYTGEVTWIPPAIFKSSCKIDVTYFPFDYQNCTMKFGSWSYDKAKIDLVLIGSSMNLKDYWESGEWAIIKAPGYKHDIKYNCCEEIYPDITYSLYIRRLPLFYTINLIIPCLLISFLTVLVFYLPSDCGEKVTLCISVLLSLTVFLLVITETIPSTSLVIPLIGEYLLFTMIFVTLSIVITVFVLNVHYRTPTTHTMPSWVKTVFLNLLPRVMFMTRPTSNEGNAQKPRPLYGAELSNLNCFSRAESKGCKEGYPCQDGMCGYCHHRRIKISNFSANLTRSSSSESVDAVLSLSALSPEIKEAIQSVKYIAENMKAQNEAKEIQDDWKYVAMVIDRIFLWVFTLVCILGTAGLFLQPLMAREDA
T1 sequence (P30926 22-498): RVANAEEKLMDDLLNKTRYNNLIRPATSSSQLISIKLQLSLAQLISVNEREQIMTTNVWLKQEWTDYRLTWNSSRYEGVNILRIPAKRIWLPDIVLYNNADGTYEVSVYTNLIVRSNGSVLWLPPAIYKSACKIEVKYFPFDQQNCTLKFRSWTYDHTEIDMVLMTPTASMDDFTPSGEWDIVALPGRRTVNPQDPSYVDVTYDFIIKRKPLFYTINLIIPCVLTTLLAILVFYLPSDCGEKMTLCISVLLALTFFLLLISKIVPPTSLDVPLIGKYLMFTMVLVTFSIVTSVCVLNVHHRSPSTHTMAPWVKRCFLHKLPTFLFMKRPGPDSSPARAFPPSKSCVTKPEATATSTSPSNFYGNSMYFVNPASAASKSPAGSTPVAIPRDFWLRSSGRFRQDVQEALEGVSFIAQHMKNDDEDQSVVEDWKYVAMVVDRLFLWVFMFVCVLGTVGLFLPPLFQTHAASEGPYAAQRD
T2 sequence (P09483 31-630): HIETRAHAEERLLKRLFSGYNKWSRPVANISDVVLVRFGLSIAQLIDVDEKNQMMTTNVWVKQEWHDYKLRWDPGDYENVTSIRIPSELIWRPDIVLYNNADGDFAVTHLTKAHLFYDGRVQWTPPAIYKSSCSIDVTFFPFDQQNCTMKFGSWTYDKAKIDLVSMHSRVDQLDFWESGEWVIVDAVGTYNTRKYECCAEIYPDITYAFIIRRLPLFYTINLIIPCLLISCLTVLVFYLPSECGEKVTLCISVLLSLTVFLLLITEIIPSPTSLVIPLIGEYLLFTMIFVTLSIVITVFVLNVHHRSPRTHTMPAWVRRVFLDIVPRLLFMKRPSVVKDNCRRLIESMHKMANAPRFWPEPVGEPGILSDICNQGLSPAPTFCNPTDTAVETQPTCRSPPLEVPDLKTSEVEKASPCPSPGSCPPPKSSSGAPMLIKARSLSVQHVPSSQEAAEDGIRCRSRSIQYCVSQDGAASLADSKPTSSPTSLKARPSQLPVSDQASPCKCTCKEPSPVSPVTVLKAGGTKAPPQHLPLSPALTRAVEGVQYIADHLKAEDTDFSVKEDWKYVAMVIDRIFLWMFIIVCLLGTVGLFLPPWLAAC
T2 sequence (P12390 25-500): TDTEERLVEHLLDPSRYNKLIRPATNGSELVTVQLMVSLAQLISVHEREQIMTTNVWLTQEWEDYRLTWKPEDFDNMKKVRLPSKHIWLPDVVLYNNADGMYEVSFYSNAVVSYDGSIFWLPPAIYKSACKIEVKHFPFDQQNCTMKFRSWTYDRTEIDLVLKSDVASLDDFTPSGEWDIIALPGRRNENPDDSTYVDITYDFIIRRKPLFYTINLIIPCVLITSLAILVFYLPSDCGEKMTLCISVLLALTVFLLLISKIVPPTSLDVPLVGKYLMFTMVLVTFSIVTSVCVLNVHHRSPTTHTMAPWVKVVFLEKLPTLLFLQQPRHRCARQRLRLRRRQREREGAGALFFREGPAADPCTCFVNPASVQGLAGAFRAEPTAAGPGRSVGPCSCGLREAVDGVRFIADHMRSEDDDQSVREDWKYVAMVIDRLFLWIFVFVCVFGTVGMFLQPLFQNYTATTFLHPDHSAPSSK

## c1cnc2cc3c(cc2n1)CCNCC3 [Compound A, 7,8,9,10-tetrahydro-6H-azepino[4,5-g]quinoxaline]
[1]; 86Rb+ efflux
  EC50: 4400 nM
[1]; percentage of maximal activation induced by L-nicotine
  Emax: 21%
[2]
  effect on scopolamine-induced cognitive deficits, MWM: reverse scopolamine-induced cognitive deficits
[3]
  Ki: 17 nM

Reference: patent US20120053168A1, “FUSED BENZOAZEPINES AS NEURONAL NICOTINIC ACETYLCHOLINE RECEPTOR LIGANDS” (Targacept, Inc., priority 2009, published 2012)
